Results: patent US20080261994A1, “CYCLOPROPANE COMPOUNDS AND PHARMACEUTICAL USE THEREOF” (Japan Tobacco Inc., priority 2003, published 2008)
Where two headings read alike, the source gives them in different places.

Tests used:
Assay type in all cases: biochemical
aggrecanase-1 = biological target: T1, aggrecanase-1 (Homo sapiens, UniProt O75173); experiment: Aggrecanase-1 inhibitory action (Particle Assay, GAG release from aggrecan-containing polyacrylamide particles)
T1 sequence (O75173 213-837): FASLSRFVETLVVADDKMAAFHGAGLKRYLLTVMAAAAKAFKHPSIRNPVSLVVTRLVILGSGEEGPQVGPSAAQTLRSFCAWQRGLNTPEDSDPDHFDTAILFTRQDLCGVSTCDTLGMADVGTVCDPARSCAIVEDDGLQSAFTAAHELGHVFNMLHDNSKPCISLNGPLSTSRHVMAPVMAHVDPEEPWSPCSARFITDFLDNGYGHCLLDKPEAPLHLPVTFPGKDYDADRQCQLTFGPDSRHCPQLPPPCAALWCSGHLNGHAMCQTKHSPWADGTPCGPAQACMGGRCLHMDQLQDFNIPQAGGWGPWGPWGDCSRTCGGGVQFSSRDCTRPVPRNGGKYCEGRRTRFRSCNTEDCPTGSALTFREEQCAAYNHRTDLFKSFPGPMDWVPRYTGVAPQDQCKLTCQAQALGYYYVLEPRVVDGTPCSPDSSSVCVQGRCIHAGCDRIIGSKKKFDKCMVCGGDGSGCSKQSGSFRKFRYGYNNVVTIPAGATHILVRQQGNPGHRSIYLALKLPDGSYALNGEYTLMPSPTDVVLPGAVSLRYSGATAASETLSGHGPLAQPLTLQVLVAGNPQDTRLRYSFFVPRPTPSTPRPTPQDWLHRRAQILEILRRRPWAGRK
Procedure, shortened: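 Readout was dimethylmethylene blue absorbance (595 nm) of glycosaminoglycan liberated into supernatant, calibrated with whale chondroitin sulfate. Substrate was aggrecan in polyacrylamide particles, digested 15 h at 37° C in Tris-HCl; TC50 (μM) derived from inhibition relative to no-enzyme and no-inhibitor controls.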

MMP-1 = biological target: T2, MMP-1 (Homo sapiens, UniProt P03956); experiment: MMP-1 inhibitory action (Type I collagen Activity Measurement kit, FITC-labeled collagen type I)
T2 sequence (P03956 100-469): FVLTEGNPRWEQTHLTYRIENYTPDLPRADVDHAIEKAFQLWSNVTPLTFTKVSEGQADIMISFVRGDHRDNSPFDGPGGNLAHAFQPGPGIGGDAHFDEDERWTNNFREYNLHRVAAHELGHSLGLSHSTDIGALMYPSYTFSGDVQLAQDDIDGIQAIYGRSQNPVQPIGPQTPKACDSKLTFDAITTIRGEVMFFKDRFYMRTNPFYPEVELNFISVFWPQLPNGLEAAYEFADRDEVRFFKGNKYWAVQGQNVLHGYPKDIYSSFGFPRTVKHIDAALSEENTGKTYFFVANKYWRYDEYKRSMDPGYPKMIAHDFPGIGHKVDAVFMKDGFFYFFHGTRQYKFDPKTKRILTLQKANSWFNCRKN

Recombinant Human MMP-13 = biological target: T3, Recombinant Human MMP-13 (Homo sapiens, UniProt P45452); experiment: MMP-13 inhibitory activity (MMP-13 specific fluorescent substrate with quencher)
T3 construct: purchased R&D systems 511-MM
Procedure, shortened: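 IC50 (μM) derived from % inhibition, normalised to wells without enzyme and without inhibitor, fluorescence read at 325/405 nm. Enzyme and compound preceded addition of the quenched 7-MCA…DPA substrate; Tris-HCl buffer, 25 °C for 1 h, acetic-acid stop.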

[1] = Experimental Example 1, read-out: IC50 AG1
[2] = Experimental Example 2, read-out: IC50 MMP1
[3] = Experimental Example 3, read-out: IC50 MMP13
[4] = aggrecanase-1 inhibitory action, read-out: IC50 AG1 (Experimental Example 1)
[5] = MMP-1 inhibitory action, FITC-labeled collagen type I, 37° C. for 3 hr, read-out: IC50 MMP1 (Experimental Example 2)
[6] = Recombinant Human MMP-13, fluorescent substrate, 25° C. for 1 h, read-out: IC50 MMP13 (Experimental Example 3)

IC50 (aggrecanase-1; [1]) [nM]	IC50 (MMP-1; [2]) [nM]	IC50 (Recombinant Human MMP-13; [3]) [nM]	IC50 (aggrecanase-1; [4]) [nM]	IC50 (MMP-1; [5]) [nM]	IC50 (Recombinant Human MMP-13; [6]) [nM]	Compound
≥ 1000	≥ 1000	≥ 1000	–	–	–	CC1[C@H](c2ccccc2)[C@]1(NS(=O)(=O)N1CCN(C/C=C/c2ccccc2)CC1)C(=O)O (stereo partly drawn) [Example 2-537]
< 100	< 1000	< 100	–	–	–	CC1[C@H](c2ccccc2)[C@]1(NS(=O)(=O)c1ccc(-n2cc(Cl)cn2)s1)C(=O)O (stereo partly drawn) [Example 2-444]
< 1000	≥ 1000	< 1000	–	–	–	C[C@]1(c2ccccc2)C[C@@]1(NS(=O)(=O)c1ccc(-c2ccc(F)c(O)c2)s1)C(=O)O [Example 2-600]
–	–	–	< 1000	≥ 1000	< 1000	O=C(O)C1(NS(=O)(=O)c2ccc(-c3ccc(Cl)cc3)s2)CC1c1cccc(OCCO)c1 (stereo not drawn) [Example 1-86]
< 100	≥ 1000	< 1000	–	–	–	C[C@]1(c2ccccc2)C[C@@]1(NS(=O)(=O)c1ccc(-n2cc(C(F)(F)F)cn2)s1)C(=O)O [Example 2-599]
≥ 1000	≥ 1000	< 1000	–	–	–	CC1[C@H](c2ccccc2)[C@]1(NS(=O)(=O)N1CCN(c2ccc(C(F)(F)F)cc2)C(=O)C1)C(=O)O (stereo partly drawn) [Example 2-504]
< 100	≥ 1000	< 100	–	–	–	O=C(O)C1(NS(=O)(=O)c2ccc(-c3cc(C(F)(F)F)on3)s2)C2CCCc3ccccc3C21 (stereo not drawn) [Example 2-305]
–	–	–	≥ 1000	≥ 10000	< 1000	O=C(O)C1(NS(=O)(=O)N2CCN(c3ncc(Br)cn3)CC2)CC1c1ccccc1 (stereo not drawn) [Example 2-155]
–	–	–	≥ 1000	≥ 10000	< 1000	O=C(O)C1(NS(=O)(=O)c2ccc(-c3ccc(Cl)cc3)s2)CC1c1ccc(N2CCOCC2)cc1 (stereo not drawn) [Example 2-245]
–	–	–	< 1000	≥ 1000	< 100	CN1CCN(C(=O)Cc2cccc(C3CC3(NS(=O)(=O)c3ccc(-c4cc(C(F)(F)F)on4)s3)C(=O)O)c2)CC1 (stereo not drawn) [Example 2-221]
≥ 1000	≥ 10000	< 1000	–	–	–	Cn1cc(-c2ccc(S(=O)(=O)N[C@@]3(C(=O)O)C[C@@H]3c3ccccc3)s2)cn1 [Example 2-387]
–	–	–	< 100	≥ 10000	< 100	O=C(O)[C@]1(NS(=O)(=O)c2ccc(-c3ccc(Cl)cc3)s2)C[C@@H]1c1cccc(CO)c1 [Example 2-182]
–	–	–	≥ 10000	≥ 10000	≥ 10000	O=C(NCCC(F)(F)F)c1ccc(S(=O)(=O)NC2(C(=O)O)CC2c2ccccc2)s1 (stereo not drawn) [Example 2-97]
≥ 1000	≥ 1000	≥ 1000	–	–	–	CC1[C@H](c2ccccc2)[C@]1(NS(=O)(=O)N1CCC(OCc2ccc(Cl)cc2)C1)C(=O)O (stereo partly drawn) [Example 2-550]
< 100	≥ 1000	< 1000	–	–	–	C[C@]1(c2ccccc2)C[C@@]1(NS(=O)(=O)c1ccc(-c2ccc(F)c(Cl)c2)s1)C(=O)O [Example 2-413]
–	–	–	< 100	≥ 10000	< 1000	O=C(O)C1(NS(=O)(=O)c2ccc(-c3ccc(Cl)cc3)s2)CC1c1ccccc1 (stereo not drawn) [Example 1-69]
≥ 1000	≥ 1000	≥ 1000	–	–	–	COCc1cn2cc(S(=O)(=O)N[C@@]3(C(=O)O)C[C@]3(C)c3ccccc3)sc2n1 [Example 2-519]
–	–	–	< 1000	≥ 10000	< 1000	O=C(O)[C@@]1(NS(=O)(=O)c2ccc3c(c2)Cc2cc(F)ccc2-3)C[C@H]1c1ccccc1 [Example 2-244]
< 100	≥ 1000	< 100	–	–	–	C[C@]1(c2ccccc2)C[C@@]1(NS(=O)(=O)c1ccc(-c2ccc(Cl)c(CO)c2)s1)C(=O)O [Example 2-564]
< 100	< 100	< 100	–	–	–	CC1[C@H](c2ccccc2)[C@]1(NS(=O)(=O)c1ccc(-c2cc(C(C)(F)F)on2)s1)C(=O)O (stereo partly drawn) [Example 2-609]
–	–	–	< 100	≥ 1000	< 100	O=C(O)[C@]1(NS(=O)(=O)c2ccc(-c3ccc(Cl)cn3)s2)C[C@@H]1c1ccccc1 [Example 1-131]

IC50 (aggrecanase-1; [1]) [nM]	IC50 (MMP-1; [2]) [nM]	IC50 (Recombinant Human MMP-13; [3]) [nM]	IC50 (aggrecanase-1; [4]) [nM]	IC50 (MMP-1; [5]) [nM]	IC50 (Recombinant Human MMP-13; [6]) [nM]	Compound
< 100	< 1000	< 100	–	–	–	O=C(O)C1(NS(=O)(=O)c2ccc(-c3ccc(Cl)cc3)s2)CC1(CCCn1cccn1)c1ccccc1 (stereo not drawn) [Example 2-273]
–	–	–	< 1000	≥ 1000	< 100	O=C(Nc1cccc(C2CC2(NS(=O)(=O)c2ccc(-c3ccc(Cl)cc3)cc2)C(=O)O)c1)c1ccccn1 (stereo not drawn) [Example 1-62]
–	–	–	< 1000	≥ 1000	< 1000	O=C(O)C1(NS(=O)(=O)c2ccc(-c3ccc(F)cc3)s2)CC1c1ccccc1 (stereo not drawn) [Example 2-21]
< 100	≥ 10000	≥ 1000	–	–	–	CC1(C)C(c2ccccc2)C1(NS(=O)(=O)c1ccc(-c2ccc(Cl)cc2)s1)C(=O)O (stereo not drawn) [Example 2-274]
< 100	≥ 1000	< 1000	–	–	–	C[C@]1(c2ccccc2)C[C@@]1(NS(=O)(=O)c1ccc(-n2cc(Cl)cn2)s1)C(=O)O [Example 2-498]
≥ 1000	≥ 10000	≥ 1000	–	–	–	Cc1cn(-c2ccc(S(=O)(=O)N[C@@]3(C(=O)O)C(C)[C@@H]3c3ccccc3)s2)cn1 (stereo partly drawn) [Example 2-367]
< 100	< 1000	< 100	–	–	–	O=C(O)C1(NS(=O)(=O)c2ccc(-c3cc(C(F)F)on3)s2)C2CCCc3ccccc3C21 (stereo not drawn) [Example 2-383]
–	–	–	< 100	≥ 1000	< 1000	Nc1cccc(C2CC2(NS(=O)(=O)c2ccc(-c3ccc(Cl)cc3)s2)C(=O)O)c1 (stereo not drawn) [Example 1-128]
–	–	–	< 1000	≥ 10000	≥ 1000	CCC1CC1(NS(=O)(=O)c1ccc(-c2ccc(Cl)cc2)s1)C(=O)O (stereo not drawn) [Example 2-48]
≥ 1000	≥ 10000	< 100	–	–	–	COc1cnn(-c2ccc(S(=O)(=O)N[C@@]3(C(=O)O)C[C@@H]3c3ccccc3)cn2)c1 [Example 2-482]
–	–	–	≥ 10000	≥ 10000	≥ 10000	O=C1CCCN1c1ccc(S(=O)(=O)N[C@@]2(C(=O)O)C[C@@H]2c2ccccc2)s1 [Example 2-163]
–	–	–	< 1000	≥ 1000	< 100	Nc1cccc(C2CC2(NS(=O)(=O)c2ccc(-c3ccc(Cl)cc3)cc2)C(=O)O)c1 (stereo not drawn) [Example 1-18]
–	–	–	< 1000	≥ 10000	< 1000	O=C(O)[C@@]1(NS(=O)(=O)c2ccc(-c3ccc(Cl)cc3)s2)C[C@H]1c1ccccc1 [Example 2-192]
< 100	≥ 1000	< 100	–	–	–	O=C(O)C1(NS(=O)(=O)c2ccc(-c3ccc(Cl)cc3)s2)C2CCOc3ccccc3C21 (stereo not drawn) [Example 2-369]
–	–	–	≥ 10000	≥ 10000	≥ 10000	Cc1nc(-c2ccc(S(=O)(=O)NC3(C(=O)O)CC3c3ccccc3)s2)c(Cl)o1 (stereo not drawn) [Example 2-88]
≥ 10000	< 1000	< 1000	–	–	–	C#Cc1ccc(S(=O)(=O)N[C@@]2(C(=O)O)C(C)[C@@H]2c2ccccc2)s1 (stereo partly drawn) [Example 2-424]
< 100	< 1000	< 1000	–	–	–	C[C@]1(c2ccccc2)C[C@@]1(NS(=O)(=O)c1ccc(-n2cc(S(C)(=O)=O)cn2)s1)C(=O)O [Example 2-602]
< 100	≥ 1000	< 100	–	–	–	O=C(O)C1(NS(=O)(=O)c2ccc(-c3ccc(Cl)cc3)s2)C2CCC(O)c3ccccc3C21 (stereo not drawn) [Example 2-412]
–	–	–	< 100	≥ 1000	< 100	O=C(Cc1cccc(C2CC2(NS(=O)(=O)c2ccc(-c3cc(C(F)(F)F)on3)s2)C(=O)O)c1)N1CCC(O)CC1 (stereo not drawn) [Example 2-222]
–	–	–	< 100	≥ 1000	< 1000	O=C(O)C1(NS(=O)(=O)c2ccc(-c3ccc(Cl)cc3)s2)CC1c1ccccc1O (stereo not drawn) [Example 1-102]
